Measured values as given in patent publication US20020035061A1, “COMPOSITIONS AND METHODS FOR TREATING INFECTIONS USING CATIONIC PEPTIDES ALONE OR IN COMBINATION WITH ANTIBIOTICS” (priority 1996, published 2002).
Like-named read-outs stand apart in the source and are kept apart here.

Key:
[1] = system: MSSA (Smith, ATCC # 19640); assay: In vivo efficacy, MSSA infection; set-up: species or system S. aureus; settings: formulation D, 60 min post-infection, end of eight day observation
E. faecalis = assay type: cell-based; settings: E. faecalis EFS002
E. faecium = assay type: cell-based
bacterial isolates = assay: microbe, parasite or virus in culture; assay type: cell-based
S. marcescens = assay type: cell-based; settings: for Peptide MIC values: agarose dilution
S. aureus = assay type: cell-based; settings: for Peptide MIC values: agarose dilution
E. cloacae = assay type: cell-based; settings: E. cloacae ECL007
S. maltophilia = assay type: cell-based; settings: S. maltophilia SMA002
H. influenzae = assay: Agarose dilution assay (MIC); assay type: cell-based; settings: H. influenzae HIN002
[2] = S. aureus SA014 (also SA014 MRSA)
[3] = S. aureus SA025 (also SA025 MRSA)

Sequence: ILKKFPFFPFRRK [MBI 11A1CN]
- % Survival ([1]; 12 mg/kg ip): 0%
- % Survival ([1]; 18 mg/kg ip): 0%
- % Survival ([1]; 24 mg/kg ip): 0%
- MIC (E. faecalis): 32 µg/mL
- MIC (E. faecium; E. faecium EFM002): 1 µg/mL
- Peptide MIC values (E. faecium; agarose dilution): 128 µg/mL
- Peptide MIC Alone (bacterial isolates; 3. Ciprofloxacin, S. aureus SA10): 128 µg/mL
- Peptide MIC Alone (bacterial isolates; 3. Ciprofloxacin, S. aureus SA11): >128 µg/mL
- Peptide MIC Alone (bacterial isolates; 4. Gentamicin, E. faecium EFM004): 32 µg/mL
- Peptide MIC Alone (bacterial isolates; 4. Gentamicin, S. aureus SA014 MRSA): 8 µg/mL
- Peptide MIC Alone (bacterial isolates; 4. Gentamicin, S. epidermidis SE074): 32 µg/mL
- Peptide MIC Alone (bacterial isolates; 4. Gentamicin, S. maltophilia SMA019): >128 µg/mL
- Peptide MIC Alone (bacterial isolates; 4. Gentamicin, S. maltophilia SMA020): >128 µg/mL
- Mupirocin MIC + Peptide (bacterial isolates; E. coli ECO1): 10 µg/mL
- Peptide MIC + Mupirocin (bacterial isolates; E. coli ECO1): 4 µg/mL
- Peptide MIC Alone (bacterial isolates; E. coli ECO1, Mupirocin section): 32 µg/mL
- Mupirocin MIC + Peptide (bacterial isolates; E. coli SBECO2): 30 µg/mL
- Peptide MIC + Mupirocin (bacterial isolates; E. coli SBECO2): 2 µg/mL
- Peptide MIC Alone (bacterial isolates; E. coli SBECO2, Mupirocin section): 128 µg/mL
- Peptide MIC + Vancomycin (bacterial isolates; E. faecalis EFS001): 0.125 µg/mL
- Peptide MIC Alone (bacterial isolates; E. faecalis EFS001): 4 µg/mL
- Vancomycin MIC + Peptide (bacterial isolates; E. faecalis EFS001): 0.5 µg/mL
- Peptide MIC + Vancomycin (bacterial isolates; E. faecalis EFS006): 0.25 µg/mL
- Peptide MIC Alone (bacterial isolates; E. faecalis EFS006): 128 µg/mL
- Vancomycin MIC + Peptide (bacterial isolates; E. faecalis EFS006): 4 µg/mL
- Peptide MIC + Vancomycin (bacterial isolates; E. faecalis EFS007): 0.5 µg/mL
- Peptide MIC Alone (bacterial isolates; E. faecalis EFS007): 128 µg/mL
- Vancomycin MIC + Peptide (bacterial isolates; E. faecalis EFS007): 2 µg/mL
- Peptide MIC + Vancomycin (bacterial isolates; E. faecalis EFS010): 2 µg/mL
- Peptide MIC Alone (bacterial isolates; E. faecalis EFS010): 128 µg/mL
- Vancomycin MIC + Peptide (bacterial isolates; E. faecalis EFS010): 4 µg/mL
- Peptide MIC + Vancomycin (bacterial isolates; E. faecalis EFS012): 8 µg/mL
- Peptide MIC Alone (bacterial isolates; E. faecalis EFS012): 64 µg/mL
- Vancomycin MIC + Peptide (bacterial isolates; E. faecalis EFS012): 32 µg/mL
- Peptide MIC + Vancomycin (bacterial isolates; E. faecalis EFS014): 2 µg/mL
- Peptide MIC Alone (bacterial isolates; E. faecalis EFS014): 4 µg/mL
- Vancomycin MIC + Peptide (bacterial isolates; E. faecalis EFS014): 1 µg/mL
- Gentamicin MIC + Peptide (bacterial isolates; E. faecium EFM004): 64 µg/mL
- Peptide MIC + Gentamicin (bacterial isolates; E. faecium EFM004): 1 µg/mL
- Peptide MIC + Vancomycin (bacterial isolates; E. faecium EFM004): 16 µg/mL
- Peptide MIC Alone (bacterial isolates; E. faecium EFM004): 32 µg/mL
- Vancomycin MIC + Peptide (bacterial isolates; E. faecium EFM004): 0.5 µg/mL
- Peptide MIC + Vancomycin (bacterial isolates; E. faecium EFM007): 16 µg/mL
- Peptide MIC Alone (bacterial isolates; E. faecium EFM007): 64 µg/mL
- Vancomycin MIC + Peptide (bacterial isolates; E. faecium EFM007): 4 µg/mL
- Peptide MIC + Vancomycin (bacterial isolates; E. faecium EFM009): 8 µg/mL
- Peptide MIC Alone (bacterial isolates; E. faecium EFM009): 64 µg/mL
- Vancomycin MIC + Peptide (bacterial isolates; E. faecium EFM009): 4 µg/mL
- Peptide MIC + Tobramycin (bacterial isolates; P. aeruginosa PA026): 0.125 µg/mL
- Tobramycin MIC + Peptide (bacterial isolates; P. aeruginosa PA026): 4 µg/mL
- Peptide MIC Alone (bacterial isolates; P. aeruginosa PA026, Tobramycin section): >128 µg/mL
- Peptide MIC + Tobramycin (bacterial isolates; P. aeruginosa PA032): 0.5 µg/mL
- Tobramycin MIC + Peptide (bacterial isolates; P. aeruginosa PA032): 8 µg/mL
- Peptide MIC Alone (bacterial isolates; P. aeruginosa PA032, Tobramycin section): >128 µg/mL
- Ciprofloxacin MIC + Peptide (bacterial isolates; S. aureus SA10): 16 µg/mL
- Peptide MIC + Ciprofloxacin (bacterial isolates; S. aureus SA10): 4 µg/mL
- Ciprofloxacin MIC + Peptide (bacterial isolates; S. aureus SA11): 32 µg/mL
- Peptide MIC + Ciprofloxacin (bacterial isolates; S. aureus SA11): 1 µg/mL
- Peptide MIC + Tobramycin (bacterial isolates; [2]): 8 µg/mL
- Tobramycin MIC + Peptide (bacterial isolates; [2]): 0.125 µg/mL
- Peptide MIC Alone (bacterial isolates; S. aureus SA014 (also SA014 MRSA), Tobramycin section): 16 µg/mL
- Gentamicin MIC + Peptide (bacterial isolates; S. aureus SA014 MRSA): 2 µg/mL
- Peptide MIC + Gentamicin (bacterial isolates; S. aureus SA014 MRSA): 4 µg/mL
- Peptide MIC + Tobramycin (bacterial isolates; [3]): 4 µg/mL
- Tobramycin MIC + Peptide (bacterial isolates; [3]): 0.125 µg/mL
- Peptide MIC Alone (bacterial isolates; S. aureus SA025 (also SA025 MRSA), Tobramycin section): 8 µg/mL
- Gentamicin MIC + Peptide (bacterial isolates; S. epidermidis SE074): 1 µg/mL
- Peptide MIC + Gentamicin (bacterial isolates; S. epidermidis SE074): 16 µg/mL
- Peptide MIC + Tobramycin (bacterial isolates; S. haemolyticus SHA001): 0.125 µg/mL
- Tobramycin MIC + Peptide (bacterial isolates; S. haemolyticus SHA001): 2 µg/mL
- Peptide MIC Alone (bacterial isolates; S. haemolyticus SHA001, Tobramycin section): 8 µg/mL
- Peptide MIC + Tobramycin (bacterial isolates; S. haemolyticus SHA005): 0.125 µg/mL
- Tobramycin MIC + Peptide (bacterial isolates; S. haemolyticus SHA005): 4 µg/mL
- Peptide MIC Alone (bacterial isolates; S. haemolyticus SHA005, Tobramycin section): 16 µg/mL
- Gentamicin MIC + Peptide (bacterial isolates; S. maltophilia SMA019): 2 µg/mL
- Peptide MIC + Gentamicin (bacterial isolates; S. maltophilia SMA019): 16 µg/mL
- Gentamicin MIC + Peptide (bacterial isolates; S. maltophilia SMA020): 2 µg/mL
- Peptide MIC + Gentamicin (bacterial isolates; S. maltophilia SMA020): 16 µg/mL
- Peptide MIC + Tobramycin (bacterial isolates; S. maltophilia SMA029): 32 µg/mL
- Tobramycin MIC + Peptide (bacterial isolates; S. maltophilia SMA029): 4 µg/mL
- Peptide MIC Alone (bacterial isolates; S. maltophilia SMA029, Tobramycin section): >128 µg/mL
- Peptide MIC + Tobramycin (bacterial isolates; S. maltophilia SMA030): 64 µg/mL
- Tobramycin MIC + Peptide (bacterial isolates; S. maltophilia SMA030): 2 µg/mL
- Peptide MIC Alone (bacterial isolates; S. maltophilia SMA030, Tobramycin section): >128 µg/mL
- FIC (bacterial isolates; peptide + Ciprofloxacin, S. aureus SA10): 0.53
- FIC (bacterial isolates; peptide + Ciprofloxacin, S. aureus SA11): 0.50
- FIC (bacterial isolates; peptide + Gentamicin, E. faecium EFM004): 0.28
- FIC (bacterial isolates; peptide + Gentamicin, S. aureus SA014 MRSA): 0.56
- FIC (bacterial isolates; peptide + Gentamicin, S. epidermidis SE074): 0.51
- FIC (bacterial isolates; peptide + Gentamicin, S. maltophilia SMA019): 0.31
- FIC (bacterial isolates; peptide + Gentamicin, S. maltophilia SMA020): 0.31
- FIC (bacterial isolates; peptide + Mupirocin, E. coli ECO1): 0.14
- FIC (bacterial isolates; peptide + Mupirocin, E. coli SBECO2): 0.05
- FIC (bacterial isolates; peptide + Tobramycin, P. aeruginosa PA026): 0.50
- FIC (bacterial isolates; peptide + Tobramycin, P. aeruginosa PA032): 0.50
- FIC (bacterial isolates; peptide + Tobramycin, S. aureus SA014 (also SA014 MRSA)): 0.50
- FIC (bacterial isolates; peptide + Tobramycin, S. aureus SA025 (also SA025 MRSA)): 0.50
- FIC (bacterial isolates; peptide + Tobramycin, S. haemolyticus SHA001): 0.52
- FIC (bacterial isolates; peptide + Tobramycin, S. haemolyticus SHA005): 0.51
- FIC (bacterial isolates; peptide + Tobramycin, S. maltophilia SMA029): 0.16
- FIC (bacterial isolates; peptide + Tobramycin, S. maltophilia SMA030): 0.27
- FIC (bacterial isolates; peptide + Vancomycin, E. faecalis EFS001): 0.53
- FIC (bacterial isolates; peptide + Vancomycin, E. faecalis EFS006): 0.50
- FIC (bacterial isolates; peptide + Vancomycin, E. faecalis EFS007): 0.50
- FIC (bacterial isolates; peptide + Vancomycin, E. faecalis EFS010): 0.27
- FIC (bacterial isolates; peptide + Vancomycin, E. faecalis EFS012): 0.25
- FIC (bacterial isolates; peptide + Vancomycin, E. faecalis EFS014): 0.51
- FIC (bacterial isolates; peptide + Vancomycin, E. faecium EFM004): 0.50
- FIC (bacterial isolates; peptide + Vancomycin, E. faecium EFM007): 0.28
- FIC (bacterial isolates; peptide + Vancomycin, E. faecium EFM009): 0.25
- MIC (S. marcescens; S. marcescens SBSM2): >128 µg/mL
- Peptide MIC values (S. marcescens; S. marcescens SM76): >128 µg/mL
- Peptide MIC values (S. marcescens; S. marcescens SM82): >128 µg/mL
- MIC (S. aureus; S. aureus SA005): 8 µg/mL
- Peptide MIC values (S. aureus; S. aureus ATCC 29213): 2 µg/mL
- Peptide MIC values (S. aureus; S. aureus MRSA9): 8 µg/mL
- Peptide MIC values (S. aureus; S. aureus MRSA13): >128 µg/mL
- Peptide MIC values (S. aureus; S. aureus MRSA17): 32 µg/mL
- Peptide MIC values (S. aureus; S. aureus SA206): 128 µg/mL
- MIC (E. cloacae): >128 µg/mL
- MIC (S. maltophilia): >128 µg/mL
- MIC (H. influenzae): >128 µg/mL
